This experiment has as its target T1, RIPK2 enzyme (Homo sapiens, UniProt O43353).
T1 construct: purchased Carna 09-128
As to the kind of experiment: RIPK2 inhibition (ADP-Glo Kinase Assay). The format is biochemical. As to conditions: RIPK2 5 nM, ATP 150 μM, MBP substrate, read-out: RIPK2 IC50. A digest of the protocol: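 Human RIPK2 (5 nM) preincubated with compound 30 min at room temperature in 50 mM HEPES pH 7.5, 10 mM MgCl2, 2 mM DTT, 1 mM EGTA, 0.01% Brij-35, 0.05% BSA; native swine MBP as substrate. ADP formed quantified by ADP-Glo luminescence; percent inhibition relative to DMSO and no-enzyme controls.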
On the technique in general: ADP-Glo turns the ADP formed in a reaction into a luminescent signal.
T1 sequence (O43353 1-299 limits assumed): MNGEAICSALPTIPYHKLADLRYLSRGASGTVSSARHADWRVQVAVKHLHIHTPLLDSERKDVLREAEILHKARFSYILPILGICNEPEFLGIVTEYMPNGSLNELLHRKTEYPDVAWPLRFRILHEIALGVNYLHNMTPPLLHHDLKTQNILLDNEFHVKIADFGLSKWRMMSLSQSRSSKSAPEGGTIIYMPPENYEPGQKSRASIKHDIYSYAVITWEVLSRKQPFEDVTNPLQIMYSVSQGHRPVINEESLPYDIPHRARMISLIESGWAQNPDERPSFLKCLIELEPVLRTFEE
The IC50 is the midpoint of a concentration-inhibition curve. Regarding `Cc1cc(CC(=O)Nc2cc(C3CC3)n(C)n2)ccc1Oc1ccnc2ccc(S(C)(=O)=O)cc12` [Compound 235, N-(5-cyclopropyl-1-methyl-1H-pyrazol-3-yl)-2-(3-methyl-4-((6-(methylsulfonyl)quinolin-4-yl)oxy)phenyl)acetamide], the half-maximal inhibitory concentration (IC50) is less than 2.5 nM.
Under `Cc1cc(CC(=O)Nc2cc(C(C)(C)O)[nH]n2)ccc1Oc1ccnc2ccc(S(C)(=O)=O)cc12` [Compound 236, N-(5-(2-hydroxypropan-2-yl)-1H-pyrazol-3-yl)-2-(3-methyl-4-((6-(methylsulfonyl)quinolin-4-yl)oxy)phenyl)acetamide] stands less than 2.5 nM.
Under `Cc1cc(CC(=O)Nc2cnn(C(C)(C)C)c2)ccc1Oc1ccnc2ccc(S(=O)(=O)CC3COC3)cc12` [Compound 240, N-(1-(tert-butyl)-1H-pyrazol-4-yl)-2-(3-methyl-4-((6-((oxetan-3-ylmethyl)sulfonyl)quinolin-4-yl)oxy)phenyl)acetamide] stands less than 2.5 nM; under `Cc1cc(CC(=O)Nc2cnn(C(C)(C)C)c2)ccc1Oc1ccnc2ccc(S(=O)(=O)C3CCC(=O)NC3)cc12` (centres unmarked) [Compound 243, N-(1-(tert-butyl)-1H-pyrazol-4-yl)-2-(3-methyl-4-((6-((6-oxopiperidin-3-yl)sulfonyl)quinolin-4-yl)oxy)phenyl)acetamide], less than 2.5 nM.
The value for `Cc1cc(CC(=O)Nc2cnn(C(C)(C)C)c2)ccc1Oc1ccnc2ccc(-c3ncc(CO)cn3)cc12` [Compound 244, N-(1-(tert-butyl)-1H-pyrazol-4-yl)-2-(4-((6-(5-(hydroxymethyl)pyrimidin-2-yl)quinolin-4-yl)oxy)-3-methylphenyl)acetamide] was less than 2.5 nM; that for `Cc1cc(CC(=O)Nc2cnn(C(C)(C)C)c2)ccc1Oc1ccnc2ccc(-c3ccc[nH]c3=O)cc12` [Compound 245, N-(1-(tert-butyl)-1H-pyrazol-4-yl)-2-(3-methyl-4-((6-(2-oxo-1,2-dihydropyridin-3-yl)quinolin-4-yl)oxy)phenyl)acetamide] was less than 2.5 nM; that for `Cc1cc(CC(=O)Nc2cnn(C(C)(C)C)c2)ccc1Oc1ccnc2ccc(-c3cccn(C)c3=O)cc12` [Compound 246, N-(1-(tert-butyl)-1H-pyrazol-4-yl)-2-(3-methyl-4-((6-(1-methyl-2-oxo-1,2-dihydropyridin-3-yl)quinolin-4-yl)oxy)phenyl)acetamide] was 3.8 nM.
Consider `Cc1cc(CC(=O)Nc2cnn(C(C)(C)C)c2)ccc1Oc1ccnc2ccc(-c3ncc[nH]c3=O)cc12` [Compound 247, N-(1-(tert-butyl)-1H-pyrazol-4-yl)-2-(3-methyl-4-((6-(3-oxo-3,4-dihydropyrazin-2-yl)quinolin-4-yl)oxy)phenyl)acetamide], for which the half-inhibitory concentration (IC50) was less than 2.5 nM.
Under `Cc1c(Oc2ccnc3ccc(S(=O)(=O)C4COC4)cc23)ccc(CC(=O)Nc2cnn(C(C)(C)C)c2)c1F` [Compound 248, N-(1-(tert-butyl)-1H-pyrazol-4-yl)-2-(2-fluoro-3-methyl-4-((6-(oxetan-3-ylsulfonyl)quinolin-4-yl)oxy)phenyl)acetamide] stands less than 2.5 nM; under `Cc1c(Oc2ccnc3ccc(S(=O)(=O)C4CCOCC4)cc23)ccc(CC(=O)Nc2cnn(C(C)(C)C)c2)c1F` [Compound 249, N-(1-(tert-butyl)-1H-pyrazol-4-yl)-2-(2-fluoro-3-methyl-4-((6-((tetrahydro-2H-pyran-4-yl)sulfonyl)quinolin-4-yl)oxy)phenyl)acetamide], less than 2.5 nM.
Under `Cc1cc(CC(=O)Nc2cnn(C(C)(C)C)c2)ccc1Oc1ccnc2ccc(CN3CCNCC3)cc12` [Compound 252, N-(1-(tert-butyl)-1H-pyrazol-4-yl)-2-(3-methyl-4-((6-(piperazin-1-ylmethyl)quinolin-4-yl)oxy)phenyl)acetamide] stands less than 2.5 nM; under `Cc1cc(CC(=O)Nc2cnn(C(C)(C)C)c2)ccc1Oc1ccnc2ccc(S(N)(=O)=O)cc12` [Compound 254, N-(1-(tert-butyl)-1H-pyrazol-4-yl)-2-(3-methyl-4-((6-sulfamoylquinolin-4-yl)oxy)phenyl)acetamide], less than 2.5 nM.
Regarding `CNS(=O)(=O)c1ccc2nccc(Oc3ccc(CC(=O)Nc4cnn(C(C)(C)C)c4)cc3C)c2c1` [Compound 255, N-(1-(tert-butyl)-1H-pyrazol-4-yl)-2-(3-methyl-4-((6-(N-methylsulfamoyl)quinolin-4-yl)oxy)phenyl)acetamide], the concentration for half-maximal inhibition (IC50) is less than 2.5 nM.
The value for `Cc1cc(CC(=O)Nc2cnn(C(C)(C)C)c2)ccc1Oc1ccnc2ccc(S(=O)(=O)N(C)C)cc12` [Compound 256, N-(1-(tert-butyl)-1H-pyrazol-4-yl)-2-(4-((6-(N,N-dimethylsulfamoyl)quinolin-4-yl)oxy)-3-methylphenyl)acetamide] was less than 2.5 nM; that for `Cc1cc(CC(=O)Nc2cnn(C(C)(C)C)c2)ccc1Oc1ccnc2ccc(S(=O)(=O)N3CCCC3)cc12` [Compound 257, N-(1-(tert-butyl)-1H-pyrazol-4-yl)-2-(3-methyl-4-((6-(pyrrolidin-1-ylsulfonyl)quinolin-4-yl)oxy)phenyl)acetamide] was less than 2.5 nM.
The value for `Cc1cc(CC(=O)Nc2cnn(C(C)(C)C)c2)ccc1Oc1ccnc2ccc(S(=O)(=O)N3CCC3)cc12` [Compound 258, 2-(4-((6-(azetidin-1-ylsulfonyl)quinolin-4-yl)oxy)-3-methylphenyl)-N-(1-(tert-butyl)-1H-pyrazol-4-yl)acetamide] was less than 2.5 nM; that for `Cc1cc(CC(=O)Nc2cnn(C(C)(C)C)c2)ccc1Oc1ccnc2ccc(S(=O)(=O)N3CC(F)C3)cc12` [Compound 259, N-(1-(tert-butyl)-1H-pyrazol-4-yl)-2-(4-((6-((3-fluoroazetidin-1-yl)sulfonyl)quinolin-4-yl)oxy)-3-methylphenyl)acetamide] was less than 2.5 nM.
Under `Cc1cc(CC(=O)Nc2cnn(C(C)(C)C)c2)ccc1Oc1ccnc2ccc(S(=O)(=O)N3CC(C#N)C3)cc12` [Compound 260, N-(1-(tert-butyl)-1H-pyrazol-4-yl)-2-(4-((6-((3-cyanoazetidin-1-yl)sulfonyl)quinolin-4-yl)oxy)-3-methylphenyl)acetamide] stands 2.5 nM.
For `Cc1cc(CC(=O)Nc2cnn(C(C)(C)C)c2)ccc1Oc1ccnc2ccc(S(=O)(=O)N3CCOCC3)cc12` [Compound 261, N-(1-(tert-butyl)-1H-pyrazol-4-yl)-2-(3-methyl-4-((6-(morpholinosulfonyl)quinolin-4-yl)oxy)phenyl)acetamide], the IC50 was less than 2.5 nM.
Under `Cc1cc(CC(=O)Nc2cnn(C(C)(C)C)c2)ccc1Oc1ccnc2ccc(S(=O)(=O)N(C)CCO)cc12` [Compound 262, N-(1-(tert-butyl)-1H-pyrazol-4-yl)-2-(4-((6-(N-(2-hydroxyethyl)-N-methylsulfamoyl)quinolin-4-yl)oxy)-3-methylphenyl)acetamide] stands less than 2.5 nM; under `COCCN(C)S(=O)(=O)c1ccc2nccc(Oc3ccc(CC(=O)Nc4cnn(C(C)(C)C)c4)cc3C)c2c1` [Compound 263, N-(1-(tert-butyl)-1H-pyrazol-4-yl)-2-(4-((6-(N-(2-methoxyethyl)-N-methylsulfamoyl)quinolin-4-yl)oxy)-3-methylphenyl)acetamide], less than 2.5 nM; under `Cc1cc(CC(=O)Nc2cnn(C(C)(C)C)c2)ccc1Oc1ccnc2ccc(NS(C)(=O)=O)cc12` [Compound 264, N-(1-(tert-butyl)-1H-pyrazol-4-yl)-2-(3-methyl-4-((6-(methylsulfonamido)quinolin-4-yl)oxy)phenyl) acetamide], less than 2.5 nM.
The value for `Cc1cc(CC(=O)Nc2cnn(C(C)(C)C)c2)ccc1Oc1ccnc2ccc(N(C)S(C)(=O)=O)cc12` [Compound 265, N-(1-(tert-butyl)-1H-pyrazol-4-yl)-2-(3-methyl-4-((6-(N-methylmethyl-sulfonamido)quinolin-4-yl)oxy)phenyl) acetamide] was less than 2.5 nM; that for `Cc1cc(CC(=O)Nc2cnn(C(C)(C)C)c2)ccc1Oc1ccnc2ccc(N3CCCS3(=O)=O)cc12` [Compound 266, N-(1-(tert-butyl)-1H-pyrazol-4-yl)-2-(4-((6-(1,1-dioxidoisothiazolidin-2-yl)quinolin-4-yl)oxy)-3-methylphenyl) acetamide] was less than 2.5 nM; that for `Cc1c(Oc2ccnc3ccc(S(N)(=O)=O)cc23)ccc(CC(=O)Nc2cnn(C(C)(C)C)c2)c1F` [Compound 267, N-(1-(tert-butyl)-1H-pyrazol-4-yl)-2-(2-fluoro-3-methyl-4-((6-sulfamoylquinolin-4-yl)oxy)phenyl)acetamide] was less than 2.5 nM.
Under `CNS(=O)(=O)c1ccc2nccc(Oc3ccc(CC(=O)Nc4cnn(C(C)(C)C)c4)c(F)c3C)c2c1` [Compound 268, N-(1-(tert-butyl)-1H-pyrazol-4-yl)-2-(2-fluoro-3-methyl-4-((6-(N-methylsulfamoyl)quinolin-4-yl)oxy)phenyl)acetamide] stands less than 2.5 nM.
On to `Cc1c(Oc2ccnc3ccc(S(=O)(=O)N(C)C)cc23)ccc(CC(=O)Nc2cnn(C(C)(C)C)c2)c1F` [Compound 269, N-(1-(tert-butyl)-1H-pyrazol-4-yl)-2-(4-((6-(N,N-dimethylsulfamoyl)quinolin-4-yl)oxy)-2-fluoro-3-methylphenyl)acetamide], for which the IC50 is less than 2.5 nM.
Under `Cc1c(Oc2ccnc3ccc(S(=O)(=O)N4CCCC4)cc23)ccc(CC(=O)Nc2cnn(C(C)(C)C)c2)c1F` [Compound 270, N-(1-(tert-butyl)-1H-pyrazol-4-yl)-2-(2-fluoro-3-methyl-4-((6-(pyrrolidin-1-ylsulfonyl)quinolin-4-yl)oxy)phenyl)acetamide] stands less than 2.5 nM; under `Cc1c(Oc2ccnc3ccc(S(=O)(=O)N4CCC4)cc23)ccc(CC(=O)Nc2cnn(C(C)(C)C)c2)c1F` [Compound 271, 2-(4-((6-(azetidin-1-ylsulfonyl)quinolin-4-yl)oxy)-2-fluoro-3-methylphenyl)-N-(1-(tert-butyl)-1H-pyrazol-4-yl)acetamide], less than 2.5 nM.

These data come from US12624018B1, “Inhibitors of RIPK2 and medical uses thereof” (Odyssey Therapeutics, Inc., priority 2022, dated 2026).
